Laboratory results from ChEMBL document CHEMBL1201862, “PubChem BioAssay data set” (2004).
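Results reflect a 48-hour exposure of cells in 96-well plates to compound at five concentrations. The concentration for 50% growth inhibition is given as GI50.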 Active and inactive are the calls of the source. No stated cut-off is given here; in the data, active = GI50 up to about 1.1 µM and inactive = higher.

Key:
Test in all cases: NCI anticancer screen, dose series, 48 h
[1] = tested on: A498
[2] = tested on: OVCAR-8
[3] = tested on: HL-60
[4] = tested on: SK-OV-3
[5] = tested on: ACHN
[6] = tested on: NCI-H522
[7] = tested on: NCI-H460
[8] = tested on: MOLT-4
[9] = tested on: HOP-92
[10] = tested on: K562
[11] = tested on: MCF7
[12] = tested on: NCI-H23
[13] = tested on: SK-MEL-28
[14] = tested on: SNB-19
[15] = tested on: OVCAR-4
[16] = tested on: HCC 2998
[17] = tested on: SK-MEL-5
[18] = tested on: T47D
[19] = tested on: CCRF-CEM
[20] = tested on: KM12
[21] = tested on: MDA-MB-435
[22] = tested on: 786-0
[23] = tested on: UO-31
[24] = tested on: RXF 393
[25] = tested on: COLO 205
[26] = tested on: CAKI-1
[27] = tested on: A549
[28] = tested on: SW-620
[29] = tested on: SF-268
[30] = tested on: HCT-15
[31] = tested on: U-251
[32] = tested on: SF-539
[33] = tested on: SR
[34] = tested on: SNB-75
[35] = tested on: OVCAR-5
[36] = tested on: UACC-62
[37] = tested on: EKVX
[38] = tested on: DU-145
[39] = tested on: Hs-578T
[40] = tested on: HT-29
[41] = tested on: SK-MEL-2
[42] = tested on: HOP-62
[43] = tested on: HCT-116
[44] = tested on: BT-549
[45] = tested on: UACC-257
[46] = tested on: PC-3
[47] = tested on: OVCAR-3
[48] = tested on: IGROV-1
[49] = tested on: SF-295
[50] = tested on: LOX IMVI
[51] = tested on: NCI/ADR-RES
[52] = tested on: TK-10
[53] = tested on: Malme-3M
[54] = tested on: SN12C
[55] = tested on: M14
[56] = tested on: MDA-MB-231
[57] = tested on: NCI-H226

Measured: GI50

Cc1ccc(-c2n[nH]c(CC#N)n2)cc1
inactive: [1] > 100 µM | [2] > 100 µM | [3] > 100 µM | [4] > 100 µM | [5] > 100 µM | [6] > 100 µM | [7] > 100 µM | [8] > 100 µM | [9] > 100 µM | [10] > 100 µM | [11] > 100 µM | [12] > 100 µM | [13] > 100 µM | [15] > 100 µM | [16] > 100 µM | [17] > 100 µM | [18] > 100 µM | [19] > 100 µM | [20] > 100 µM | [21] > 100 µM | [22] > 100 µM | [23] > 100 µM | [24] > 100 µM | [25] > 100 µM | [26] > 100 µM | [27] > 100 µM | [28] > 100 µM | [29] > 100 µM | [31] > 100 µM | [32] > 100 µM | [33] > 100 µM | [34] > 100 µM | [35] > 100 µM | [36] > 100 µM | [37] 8.57 µM | [38] > 100 µM | [39] 39.7 µM | [40] > 100 µM | [41] > 100 µM | [42] > 100 µM | [43] > 100 µM | [44] > 100 µM | [45] > 100 µM | [46] > 100 µM | [47] > 100 µM | [48] > 100 µM | [49] > 100 µM | [50] > 100 µM | [51] > 100 µM | [52] > 100 µM | [53] > 100 µM | [54] > 100 µM | [55] > 100 µM
66.1 µM: [30]
active: [14] 0.608 µM

CCCCCCC(C)CC(CCCCCC)NCCOC(=O)c1ccc([N+](=O)[O-])cc1 (stereo not given)
10.1 µM: [30]
inactive: [56] 6.71 µM | [1] 18.4 µM | [2] 5.66 µM | [4] 14.9 µM | [5] 13.3 µM | [6] 12.1 µM | [9] 5.82 µM | [11] 7.16 µM | [12] 14.6 µM | [14] 15.6 µM | [15] 11.5 µM | [16] 2.02 µM | [17] 9.68 µM | [18] 10.7 µM | [19] 4.52 µM | [20] 10.1 µM | [22] 12.6 µM | [23] 10.4 µM | [25] 3.18 µM | [27] 15.1 µM | [28] 12.8 µM | [29] 13.8 µM | [31] 11.1 µM | [32] 13 µM | [34] 16 µM | [35] 18.5 µM | [36] 13 µM | [37] 8.71 µM | [38] 12.2 µM | [39] 17.2 µM | [40] 4.04 µM | [41] 14.1 µM | [42] 14.3 µM | [43] 8.18 µM | [44] 15.4 µM | [45] 4.98 µM | [48] 12.3 µM | [49] 15.2 µM | [50] 4.12 µM | [51] 13.4 µM | [52] 10.6 µM | [57] 13.9 µM | [53] 11.1 µM | [54] 10.7 µM
